Measurements: patent publication US20040006236A1, “Diaminopropionic acid derivatives” (priority 1999, published 2004)

What was measured:
[1] = biological target: T1, LFA-1 binding to immobilized ICAM-1 (Homo sapiens, UniProt P05107+P20701); assay: LFA-1/ICAM-1 protein-protein assay (solid-phase ELISA); conditions: read-out: LFA-1/ICAM-1 Protein-Protein Assay IC50
T1 construct: made in house; host or cells: transfected 293 cells (LFA-1)
How it was run: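 Human 5dICAM-Ig (ICAM-1 extracellular domain–IgG Fc) coated on plates; membrane-bound LFA-1 from transfected 293 cells (280 ng/mL) added with compound in Mn2+-containing HEPES buffer pH 7.2, 2 h at 37° C. Bound LFA-1 detected via anti-β2 antibody and HRP/TMB at 450 nm; IC50s determined.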

[2] = system: cell-surface Mac-1 adhesion to immobilized fibrinogen (HL-60 cells); assay: Mac-1/Fibrinogen cell-based screening assay; design: species or system human; conditions: Homo sapiens, HL-60, HL-60 cells; read-out: Mac-1/Fgn Cell based Assay IC50
How it was run: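 Wells coated with fibrinogen and blocked with PVP. Labeled HL-60 cells (2×10^6 cells/mL in RPMI/0.05% BSA/0.2 mM MnCl2) preincubated with DMSO-diluted compounds for 10 min at 37° C, then left to adhere 30 min at 37° C/5% CO2. Unbound cells washed off with TBS.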

T1 sequence (P20701 26-1170): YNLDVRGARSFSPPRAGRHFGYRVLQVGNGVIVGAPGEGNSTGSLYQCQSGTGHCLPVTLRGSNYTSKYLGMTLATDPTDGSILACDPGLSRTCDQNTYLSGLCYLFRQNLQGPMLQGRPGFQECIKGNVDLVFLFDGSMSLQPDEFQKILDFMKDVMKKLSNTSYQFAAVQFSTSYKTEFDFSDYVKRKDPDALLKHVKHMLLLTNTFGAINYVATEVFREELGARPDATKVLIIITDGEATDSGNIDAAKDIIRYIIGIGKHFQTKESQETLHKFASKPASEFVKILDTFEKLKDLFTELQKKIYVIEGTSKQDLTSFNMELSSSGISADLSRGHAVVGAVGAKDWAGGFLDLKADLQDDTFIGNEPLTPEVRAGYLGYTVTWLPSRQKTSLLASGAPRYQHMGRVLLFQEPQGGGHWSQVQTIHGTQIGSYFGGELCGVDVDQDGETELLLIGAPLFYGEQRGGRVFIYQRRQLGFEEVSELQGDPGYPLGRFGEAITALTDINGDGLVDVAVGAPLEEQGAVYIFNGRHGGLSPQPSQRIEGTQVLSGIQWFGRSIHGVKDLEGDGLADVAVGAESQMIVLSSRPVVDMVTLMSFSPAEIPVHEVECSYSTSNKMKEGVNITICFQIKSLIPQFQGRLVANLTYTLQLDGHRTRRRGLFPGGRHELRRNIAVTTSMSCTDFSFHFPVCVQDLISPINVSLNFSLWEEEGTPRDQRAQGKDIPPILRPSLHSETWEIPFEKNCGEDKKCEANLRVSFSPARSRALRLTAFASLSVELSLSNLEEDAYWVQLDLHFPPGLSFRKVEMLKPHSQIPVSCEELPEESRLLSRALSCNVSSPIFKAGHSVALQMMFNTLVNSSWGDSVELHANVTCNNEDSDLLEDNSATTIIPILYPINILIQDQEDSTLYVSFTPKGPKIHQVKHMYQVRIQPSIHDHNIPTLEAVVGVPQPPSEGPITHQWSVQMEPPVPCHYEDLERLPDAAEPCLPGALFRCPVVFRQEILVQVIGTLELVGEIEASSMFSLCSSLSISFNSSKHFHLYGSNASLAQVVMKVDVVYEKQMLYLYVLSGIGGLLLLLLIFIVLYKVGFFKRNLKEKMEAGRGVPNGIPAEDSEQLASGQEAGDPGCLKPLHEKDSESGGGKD
T1 sequence (P05107 23-769): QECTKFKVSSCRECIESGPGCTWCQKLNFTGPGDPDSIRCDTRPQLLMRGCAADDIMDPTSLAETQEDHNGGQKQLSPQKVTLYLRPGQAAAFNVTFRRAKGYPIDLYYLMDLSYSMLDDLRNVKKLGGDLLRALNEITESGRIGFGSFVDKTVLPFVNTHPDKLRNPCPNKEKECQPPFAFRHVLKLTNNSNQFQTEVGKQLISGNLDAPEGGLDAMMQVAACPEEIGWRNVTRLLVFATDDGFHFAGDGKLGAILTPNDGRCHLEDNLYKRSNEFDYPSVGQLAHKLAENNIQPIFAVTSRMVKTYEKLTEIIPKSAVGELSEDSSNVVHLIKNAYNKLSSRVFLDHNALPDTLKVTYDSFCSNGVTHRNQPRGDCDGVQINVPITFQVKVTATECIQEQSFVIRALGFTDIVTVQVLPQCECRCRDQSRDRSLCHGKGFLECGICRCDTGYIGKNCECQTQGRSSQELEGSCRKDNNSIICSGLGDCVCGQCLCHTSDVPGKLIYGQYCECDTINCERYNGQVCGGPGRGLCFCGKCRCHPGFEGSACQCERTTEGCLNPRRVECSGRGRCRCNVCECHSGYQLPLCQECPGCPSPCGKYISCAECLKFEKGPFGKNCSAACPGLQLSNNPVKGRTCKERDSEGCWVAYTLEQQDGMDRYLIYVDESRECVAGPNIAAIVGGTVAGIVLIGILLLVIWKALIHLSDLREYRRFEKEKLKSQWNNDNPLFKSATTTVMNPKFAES

IC50 [1]: 2.1 nM
IC50 [2]: 312 nM
SMILES: O=C(CC1CCCC1)NC[C@H](NC(=O)c1ccc(C(=O)NCc2cccc(O)c2)cc1Cl)C(=O)O [Example 77]
